Laboratory results published in patent US20210139484A1, “DIHYDROISOQUINOLINE-2(1H)-CARBOXAMIDE AND RELATED COMPOUNDS AND THEIR USE IN TREATING MEDICAL CONDITIONS” (GOSSAMER BIO SERVICES, INC., priority 2018, published 2021).

target: T1, human HPK1 protein (Homo sapiens, UniProt Q92918); assay: Human HPK1 protein TR-FRET assay; assay type: biochemical; settings: 1 mM ATP, Table 19
T1 construct: recombinant human HPK1 protein (a.a. 1-346) was expressed in Sf9 insect cells; GST (N); purchased Signalchem M23-11G; host or cells: Sf9 insect cells (baculovirus)
T1 sequence (Q92918 1-346): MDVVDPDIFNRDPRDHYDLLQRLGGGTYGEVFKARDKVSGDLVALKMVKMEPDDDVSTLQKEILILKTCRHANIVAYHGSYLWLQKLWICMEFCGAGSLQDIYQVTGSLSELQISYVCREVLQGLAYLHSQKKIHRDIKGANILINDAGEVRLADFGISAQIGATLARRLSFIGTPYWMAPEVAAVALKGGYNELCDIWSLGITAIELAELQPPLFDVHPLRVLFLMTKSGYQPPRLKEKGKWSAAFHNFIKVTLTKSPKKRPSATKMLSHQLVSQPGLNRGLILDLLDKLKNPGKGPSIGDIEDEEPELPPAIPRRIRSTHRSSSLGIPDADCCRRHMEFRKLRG
Method in brief: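 Read-out was TR-FRET using Eu-labeled anti-phospho-CREB (Ser133) antibody, with the 665/615 nm signal ratio normalised to DMSO-only wells and fitted by a 4-parameter logistic model for IC50. Reactions held 10 nM Sf9-expressed GST-HPK1 (a.a. 1-346), 100 nM CREBtide and 1 mM ATP, run 60 minutes at room temperature, pH 7.5.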

IC50, < 500 nM:
CCC1CN(C(=O)Nc2ccc(CN3CCN(CC)CC3)c(C(F)(F)F)c2)Cc2cc(Oc3ccnc4[nH]ccc34)ccc21 (stereo not drawn) [IV-20]
CCN1CCN(Cc2ccc(NC(=O)N3Cc4cc(Oc5ccnc6[nH]ccc56)c(F)cc4C(C)C3)cc2C(F)(F)F)CC1 (stereo not drawn) [compound 4, 7-((1H-pyrrolo[2,3-b]pyridin-4-yl)oxy)-N-(4-((4-ethylpiperazin-1-yl)methyl)-3-(trifluoromethyl)phenyl)-6-fluoro-4-methyl-3,4-dihydroisoquinoline-2(1H)-carboxamide]
CCN1CCN(Cc2ccc(NC(=O)N3CCc4ccc(Oc5ccnc6c5CCC(=O)N6)cc4C3)cc2C(F)(F)F)CC1 [II-11]
CCN1CCN(Cc2ccc(NC(=O)N3CCc4ccc(Oc5ccnc6[nH]ccc56)cc4C3)cc2C(F)(F)F)CC1 [compound 2, 7-((1H-Pyrrolo[2,3-b]pyridin-4-yl)oxy)-N-(4-((4-ethylpiperazin-1-yl)methyl)-3-(trifluoromethyl)phenyl)-3,4-dihydroisoquinoline-2(1H)-carboxamide]
CCN1CCN(Cc2ccc(NC(=O)N3Cc4cc(Oc5ccnc6[nH]ccc56)ccc4C(C)C3)cc2C(F)(F)F)CC1 (single isomer, unassigned) [IV-2]
C[C@H]1c2cc(Oc3ccnc4[nH]ccc34)ccc2CCN1C(=O)Nc1ccc(CN2CCN(CCO)CC2)c(C(F)(F)F)c1 [V-19]
CCN1CCN(Cc2ccc(NC(=O)N3CCc4ccc(Oc5ccnc6[nH]ccc56)c(F)c4C3)cc2C(F)(F)F)CC1 [III-3]
CCN1CCN(Cc2ccc(NC(=O)N3CCc4ccc(Oc5ccnc6[nH]cnc56)cc4C3)cc2C(F)(F)F)CC1 [II-20]
CCN1CCN(Cc2ccc(NC(=O)N3CCc4c(C)cc(Oc5ccnc6[nH]ccc56)cc4C3C)cc2C(F)(F)F)CC1 (single isomer, unassigned) [IV-4]
C[C@H]1c2cc(Oc3ccnc4[nH]ccc34)ccc2CCN1C(=O)Nc1ccc(CN2CCNCC2)c(C(F)(F)F)c1 [V-1]
CCN1CCN(Cc2ccc(NC(=O)N3CCc4ccc(Oc5cc(NC)ncn5)cc4C3)cc2C(F)(F)F)CC1 [II-1]
CCN1CCN(Cc2ccc(NC(=O)N3Cc4cc(Oc5ccnc6[nH]c(C)cc56)ccc4C(O)C3)cc2C(F)(F)F)CC1 (stereo not drawn) [compound 18, N-(4-((4-ethylpiperazin-1-yl)methyl)-3-(trifluoromethyl)phenyl)-4-hydroxy-7-((2-methyl-1H-pyrrolo[2,3-b]pyridin-4-yl)oxy)-3,4-dihydroisoquinoline-2(1H)-carboxamide]
CCN1CCN(Cc2ccc(NC(=O)N3Cc4cc(Oc5ccnc6[nH]c(C)cc56)cnc4C(C)C3)cc2C(F)(F)F)CC1 (single isomer, unassigned) [VII-21]
CCN1CCN(Cc2ccc(NC(=O)N3CCc4ccc(Oc5c(F)cnc6[nH]ccc56)cc4C3)cc2C(F)(F)F)CC1 [III-8]

IC50, 5000 to 10000 nM:
Cc1cc2c(Oc3ccc4c(c3)[C@H](C)N(C(=O)Nc3cnc5c(c3)CCCN5C3CCN(C)CC3)CC4)ccnc2[nH]1 [X-8]

IC50, 500 to 5000 nM:
CCN1CCN(Cc2ccc(NC(=O)N3CCc4ccc(Oc5ccnc(C(N)=O)c5)cc4[C@@H]3C)cc2C(F)(F)F)CC1 [V-12]
CCN1CCN(Cc2ccc(NC(=O)N3CCc4cc(F)c(Oc5ccnc6[nH]c(C)cc56)cc4C3C)cc2C(F)(F)F)CC1 (stereo not drawn) [IV-26]
Cc1cc2c(Oc3ccc4c(c3)[C@H](C)N(C(=O)Nc3cnc(OC5CCN(C)CC5C)c(C(F)(F)F)c3)CC4)ccnc2[nH]1 (stereo in doubt) [VI-4]
C[C@H]1c2cc(Oc3ccnc4[nH]ccc34)ccc2CCN1C(=O)Nc1ccc(OC2CCN(C)CC2)c(C(F)F)c1 [V-15]
CCN1CCN(Cc2ccc(NC(=O)N3CCc4c(C)cc(Oc5ccnc6[nH]ccc56)cc4C3C)cc2C(F)(F)F)CC1 (stereo not drawn) [IV-5]
CN1CCC(Oc2ccc(NC(=O)N3CCc4ccc(Oc5ncnn6cccc56)cc4C3)cc2C(F)(F)F)CC1 [II-16]

IC50, > 10000 nM:
CCN1CCN(Cc2ccc(NC(=O)N3CCc4cc(F)c(Oc5ccnn6cccc56)cc4C3C)cc2C(F)(F)F)CC1 (stereo not drawn) [IV-32]
CCN1CCN(Cc2ccc(NC(=O)N3CCc4cc(F)c(Oc5ncnn6cccc56)cc4C3C)cc2C(F)(F)F)CC1 (stereo not drawn) [IV-34]

same assay, conditions: 1 mM ATP, Table 20

IC50, < 500 nM:
C[C@H]1CN(C(=O)Nc2cnc(CN3CCN(C)CC3)c(C(F)(F)F)c2)Cc2cc(Oc3c(F)cnc4[nH]c(-c5cnn(C)c5)cc34)ccc21 [XII-11]
C[C@H]1CN(C(=O)Nc2ccc(CN3CCN(C)CC3)c(C(F)F)c2)Cc2cc(Oc3ccnc4[nH]c(C5(O)COC5)cc34)ccc21 [XV-33]
CCC1CN(C(=O)Nc2ccc(CN3CCN(CC)CC3)c(C(F)(F)F)c2)Cc2cc(Oc3cc(NC(=O)c4cnn(C)c4)ncc3F)cnc21 (stereo not drawn) [XIV-92]
CC[C@H]1CN(C(=O)Nc2ccc(CN3CCN(CCO)CC3)c(C(F)(F)F)c2)Cc2cc(Oc3ccnc4[nH]c(C5CC5)cc34)cnc21 [XIV-60]
CN1CCN(Cc2ccc(NC(=O)N3CCc4ccc(Oc5c(F)cnc6[nH]c(-c7cnn(C)c7)cc56)cc4C3)cc2C(F)(F)F)CC1 [compound 19, 7-[[5-Fluoro-2-(1-methylpyrazol-4-yl)-1H-pyrrolo[2,3-b]pyridin-4-yl]oxy]-N-[4-[(4-methylpiperazin-1-yl)methyl]-3-(trifluoromethyl)phenyl]-3,4-dihydro-1H-isoquinoline-2-carboxamide]
CCN1CCN(Cc2ccc(NC(=O)N3Cc4cc(Oc5ccnc6[nH]ccc56)cnc4C[C@@H]3C)cc2C(F)(F)F)CC1 [XVIII-18]
CC[C@H]1CN(C(=O)Nc2ccc(CN3CCN(C)CC3)c(C(F)(F)F)c2)Cc2cc(Oc3ccnc4[nH]c(C5=CCOC5)cc34)cnc21 [XIV-151]
CC[C@H]1Cc2ncc(Oc3ccnc4[nH]ccc34)cc2CN1C(=O)Nc1ccc(CN2CCN(CC)CC2)c(C(F)(F)F)c1 [XVIII-16]
CC[C@@H]1CN(C(=O)Nc2cnc(OC3CCN(C)CC3)c(C(F)(F)F)c2)Cc2cc(Oc3ccnc4[nH]c(C5CC5)cc34)cnc21 [XIV-43]
CC[C@H]1CN(C(=O)Nc2ccc(CN3CCNCC3)c(C(F)(F)F)c2)Cc2cc(Oc3ncnn4cc(C(=O)N(C)C)cc34)cnc21 [XIV-146]
CC[C@@H]1CN(C(=O)Nc2ccc(CN3CCN(C)CC3)c(C(F)(F)F)c2)Cc2cc(Oc3ccnc4[nH]c(C5(O)COC5)cc34)ccc21 [XV-12]
CC[C@H]1CN(C(=O)Nc2ccc(CN3CCN(C)CC3)c(C(F)(F)F)c2)Cc2cc(Oc3ccnc4[nH]c(C(N)=O)cc34)ccc21 [XV-30]
CCN1CCN(Cc2ccc(NC(=O)N3CCc4ccc(Oc5cc(NC(=O)c6cnn(C)c6)ncc5F)cc4[C@@H]3C)cc2C(F)(F)F)CC1 [XIII-17]
CC[C@@H]1CN(C(=O)Nc2cnc(OC3CCN(C)CC3)c(C(F)(F)F)c2)Cc2cc(Oc3ccnc4[nH]c(C#N)cc34)cnc21 [XIV-42]
CC[C@H]1CN(C(=O)Nc2ccc(CN3CCN(C)CC3)c(C(F)F)c2)Cc2cc(Oc3ccnc4[nH]c(CO)cc34)cnc21 [XIV-47]
CC[C@@H]1CN(C(=O)Nc2ccc(CN3CCN(C)CC3)c(C(F)F)c2)Cc2cc(Oc3ccnc4[nH]c(C5(O)COC5)cc34)ccc21 [XV-14]
CCC1CN(C(=O)Nc2ccc(CN3CCN(CC)CC3)c(C(F)(F)F)c2)Cc2cc(Nc3c(F)cnc4[nH]c(-c5cnn(C)c5)cc34)cnc21 (stereo not drawn) [XVII-1]
CCC1CN(C(=O)Nc2ccc(CN3CCN(CC)CC3)c(C(F)(F)F)c2)Cc2cc(Oc3ccnc4[nH]c(C5=CCOCC5)cc34)cnc21 (stereo not drawn) [XIV-61]
CN1CCN(Cc2ncc(NC(=O)N3CCc4ccc(Oc5c(F)cnc6[nH]c(-c7cn[nH]c7)cc56)cc4C3)cc2C(F)(F)F)CC1 [XII-8]
CC[C@H]1CN(C(=O)Nc2cnc(OC3CCN(C)CC3)c(C(F)(F)F)c2)Cc2cc(Oc3ccnc4[nH]c(CCOC)cc34)cnc21 [XIV-35]
C[C@@H]1Cc2ccc(Oc3ccnc4[nH]c(C(=O)N(C)C)cc34)cc2CN1C(=O)Nc1cnc(CN2CCN(C)CC2)c(C(F)(F)F)c1 [XVI-10]
C[C@@H]1Cc2ccc(Oc3c(F)cnc4[nH]c(C5(O)CC5)cc34)cc2CN1C(=O)Nc1cnc(CN2CCN(C)CC2)c(C(F)(F)F)c1 [XVI-8]
CCN1CCN(Cc2ccc(NC(=O)N3CCc4ncc(Oc5ccnc6[nH]c(C)cc56)cc4C3C)cc2C(F)(F)F)CC1 (single isomer, unassigned) [XI-9]
CC[C@H]1CN(C(=O)Nc2ccc(CN3CCN(CC)CC3)c(C(F)(F)F)c2)Cc2cc(Oc3ccnc4[nH]c(C#N)cc34)cnc21 [XIV-20]
CC[C@H]1CN(C(=O)Nc2ccc(CN3CCNCC3)c(C(F)(F)F)c2)Cc2cc(Oc3ccnn4cc(C(=O)NC)cc34)cnc21 [XIV-125]
CC[C@H]1CN(C(=O)Nc2ccc(CN3CCNCC3)c(C(F)(F)F)c2)Cc2cc(Oc3ncnc4[nH]c(C(=O)NC)cc34)cnc21 [XIV-127]
CC[C@H]1CN(C(=O)Nc2ccc(CN3CCN(C)CC3)c(C(F)(F)F)c2)Cc2cc(Oc3ccnc4[nH]c(C5CC5)cc34)cnc21 [XIV-72]
CC[C@@H]1CN(C(=O)Nc2ccc(CN3CCNCC3)c(C(F)(F)F)c2)Cc2cc(Oc3ccnc4[nH]c(C5(O)COC5)cc34)cnc21 [XIV-48]
